Measurements taken from patent US20240197688A1, “COMBINATION MEDICINE FOR PREVENTING/TREATING DYSLIPIDEMIA OR CARDIOVASCULAR DISEASE” (KOWA COMPANY, LTD., priority 2021, published 2024).

Assays:
Format in all cases: in vivo
[1] = system: db/db mice; test: Effect of combination use on total cholesterol content in liver of db/db mice; settings: male db/db mice, oral once a day for 2 weeks; compound A 0.3 mg/kg, compound B 10 mg/kg, alone or in combination
Excerpt: Male mice (8-week-old, db/db: BKS.Cg−+Leprdb/+Leprdb/Jcl, Lean: BKS. Cg−m+/m+/Jcl, CLEA Japan, Inc.) were used for an experiment. They were divided into four groups (N=8) based on body weights. For two weeks from the next day of the grouping, each of a solvent (0.5% methylcellulose aqueous solution: MC), a compound A (pemafibrate) alone, a compound B (bempedoic acid) alone, and a combination of pemafibrate and bempedoic acid was orally administered once per day. After four hours from the final administration of the drug, the liver was extracted under isoflurane anesthesia, and the TC concentration in the liver was measured using the FOLCH method described above. • Group 1: Control (Solvent Only) • Group 2: 0.3 mg/kg of Compound A • Group 3: 10 mg/kg of Compound B • Group 4: 0.3 mg/kg of Compound A and 10 mg/kg of Compound B The results were presented by an average value±standard error. Comparison between the control group and each of the drug administration groups was performed by a multiple comparison test of Tukey, and a risk rate of less than 5% was determined to have a significant difference.

[2] = system: Wistar rat; test: Effect of combination use of compound A and compound B on TG index of rat; settings: male Wistar rat, oral once a day for 2 weeks; compound A 0.3 mg/kg, compound B 30 mg/kg, alone or in combination; actual value
Excerpt: Male rats (7-week-old, Wistar [Crlj: WI], Charles River Laboratories Japan, Inc.) were used for an experiment. Blood was collected from the jugular vein under satiation, and the rats were divided into four groups (N=6) based on TG and TC in the plasma and body weights. For two weeks from the next day of the grouping, each of a solvent (0.5% carboxymethyl cellulose aqueous solution: CMC), a compound A (pemafibrate) alone, a compound B (bempedoic acid) alone, and a combination of pemafibrate and bempedoic acid was orally administered once per day. After four hours from the final administration of the drug, blood was collected under isoflurane anesthesia to obtain plasma. Parameters in the blood were measured using an automated analyzer (Labospect 003, Hitachi High-Technologies Corporation). A lipid content in the liver was measured using the method described in J. Biol. Chem. 226 (1), 497-509 (1957) (FOLCH method). A TG index (%) was expressed as a ratio of a product of a blood TG concentration and a TG content in the liver of a sample to that of Control. In the present Example, the compound A was prepared and used according to the method described in Patent Document 1. […] Comparison between the control group and each of the drug administration groups was performed by a multiple comparison test of Dunnett, and a risk rate of less than 5% was determined to have a significant difference.

[3] = system: PPARα gene; test: Effect of combination use on expression level of PPARα gene in liver of rat (quantitative PCR); settings: male Wistar rat, oral once a day for 2 weeks; compound A 0.3 mg/kg, compound B 30 mg/kg, alone or in combination; β-actin internal standard; actual value
Excerpt: Male rats (7-week-old, Wistar [Crlj: WI], Charles River Laboratories Japan, Inc.) were used for an experiment. Blood was collected from the jugular vein under satiation, and the rats were divided into four groups (N=6) based on TG and TC in the plasma and body weights. For two weeks from the next day of the grouping, each of a solvent (0.5% carboxymethyl cellulose aqueous solution: CMC), a compound A (pemafibrate) alone, a compound B (bempedoic acid) alone, and a combination of pemafibrate and bempedoic acid was orally administered once per day. After four hours from the final administration of the drug, blood was collected under isoflurane anesthesia to obtain the liver. RNA in the liver was extracted using ISOGEN (Nippon Gene Co., Ltd.), and cDNA was prepared using a high-capacity cDNA reverse transcription kit (Thermo Fischer Scientific). Quantitative PCR (polymerase chain reaction) was performed using the prepared cDNA, and the relative value of the expression level of the PPARα gene was calculated using β-actin gene as an internal standard. […]
The results were presented by an average value standard error. Comparison between the control group and each of the drug administration groups was performed by a multiple comparison test of Dunnett, and a risk rate of less than 5% was determined to have a significant difference.

Row | SMILES | total cholesterol content in the liver compared to Control [1] [%] | TG index (ratio of product of blood TG concentration and liver TG content to that of Control) [2] [%] | expression level of PPARα gene (Ppara) in the liver relative to Control [3] [times]
1 | CC[C@@H](Oc1cccc(CN(CCCOc2ccc(OC)cc2)c2nc3ccccc3o2)c1)C(=O)O [compound A, (R)-2-[3-[[N-(benzoxazole-2-yl)-N-3-(4-methoxyphenoxy)propyl]aminomethyl]phenoxy]butyric acid] | 86.2 | 65.4 | 1.17
2 | CC(C)(CCCCCC(O)CCCCCC(C)(C)C(=O)O)C(=O)O [compound B, 8-hydroxy-2,2,14,14-tetramethylpentadecanedioic acid] | 87.0 | 60.6 | 1.22
